Measured values reported in US11020405B2, “Method for prevention or treatment of diabetic complications” (KANGWON NATIONAL UNIVERSITY UNIVERSITY-INDUSTRY COOPERATION …, priority 2017, dated 2021).

How the values were obtained:
[1] = system: human retinal endothelial cells (HRECs); assay: Identification of receptor of midazolam through ROS concentration analysis; assay type: cell-based
Description: With reference to FIG. 10A, the HRECs of Test Example 1 were subjected to the respective treatments below, cultured for 10 min, treated with 10 μM H2DCFDA, stained for 10 min in a phenol-red-free low-serum medium, and measured using confocal microscopy to thus determine the fluorescence intensity of single cells.
As will be described below, flumazenil was used as a GABAA receptor antagonist and PK11195 was used as a TSOP receptor antagonist.
With reference to FIG. 10B, the HRECs of Test Example 1 were treated with 0 μM, 0.01 μM, 0.1 μM, 1 μM, 10 μM, 20 μM, and 50 μM flumazenil and 0 μM, 0.01 μM, 0.1 μM, 1 μM, 3 μM, 10 μM, and 30 μM PK11195, cultured for 1 hr, treated with 20 μM midazolam, cultured for 30 min, treated with 10 ng/ml VEGF, incubated for 10 min, treated with 10 μM H2DCFDA, stained for 10 min in a phenol-red-free low-serum medium, and then measured using confocal microscopy to thus determine the fluorescence intensity of single cells.

[2] = system: human retinal endothelial cells (HRECs); assay: Analysis of ROS of cells (H2DCFDA fluorescence); assay type: cell-based
Description: Purchased from Applied Cell Biology Research Institute (Cell Systems, Kirkland, Wash.), human retinal endothelial cells (HRECs) were cultured in an M19 medium, containing 20% FBS, 3 ng/mL bFGF, 5 U/mL heparin, 100 U/mL penicillin and […], in a 2% gelatin-coated plate.
Before the following Test Examples 2 to 7, the HRECs were cultured for 6 hr in a medium containing 1% FBS and an antibiotic agent, thus preparing HRECs of Test Example 1.
With reference to FIG. 3A, the HRECs of Test Example 1 were treated with 0 to 20 μM midazolam, cultured for 30 min, treated with 10 ng/mL VEGF and 10 μM H2DCFDA (Molecular Probes, Eugene, Oreg.), stained for 10 min in a phenol-red-free low-serum medium, and then measured using confocal microscopy to thus determine the fluorescence intensity of single cells.
With reference to FIG. 3B, the HRECs of Test Example 1 were subjected to the respective treatments below and cultured for 30 min. Upon treatment with 10 ng/mL VEGF, treatment with 10 μM H2DCFDA was performed therewith, or alternatively, treatment with 10 μM H2DCFDA was performed alone, followed by staining for 10 min in a phenol-red-free low-serum medium and then measurement via confocal microscopy to thus determine the fluorescence intensity of single cells.

[3] = Body weight and blood glucose monitoring in diabetic mice; assay type: in vivo, C57BL/6 mice
Description: FIGS. 19A and 19B show the preventive effects of midazolam against hyperglycemia-induced endothelial apoptosis in the aortic endothelium of diabetic mice. Six-week-old male C57BL/6 mice were administered with streptozotocin (150 mg/kg body weight) to give diabetic mouse models. One week after streptozotocin injection, diabetic mice were administered midazolam (10 mg/kg) by intraperitoneal injection daily for 14 days. The body weight of mice were measure in normal (20.7±0.1 g), diabetic (17.1±0.1 g), and midazolam supplemented diabetic mice (17.0±0.3 g). Blood glucose levels were also monitored in normal (124.0±12.0 mg/dL), diabetic (509.0±1.0 mg/dL), and midazolam supplemented diabetic mice (515.7±3.4 mg/dL). Aorta of mice were dissected and cut longitudinally to expose the endothelium. And then aortic segments were fixed for 15 min with 1% (w/v) paraformaldehyde in PBS, followed by treatment for 30 min with 70% (v/v) ethanol on ice. Apoptotic cells were stained by terminal deoxynucleotidyl transferase dUTP nick end labeling (TUNEL) with nuclear counterstaining with DAPI and visualized by confocal microscopy in the aortic endothelium. Representative images of endothelial apoptosis in aorta are shown in additional FIG. 19A. Scale bar, 100 μm. The results of endothelial apoptosis quantitatively analyzed by measurement of TUNEL staining in the aorta are shown in additional FIG. 19B (n=4 for normal and diabetic, n=6 for diabetic+Midazolam).
FIGS. 20A and 20B show the preventive effects of midazolam against hyperglycemia-induced renal vascular leakage in diabetic mice. Six-week-old male C57BL/6 mice were administered with streptozotocin (150 mg/kg body weight) to give diabetic mouse models. Two weeks after streptozotocin injection, diabetic mice were administered 10 mg/kg midazolam by intraperitoneal injection daily for 2 days, and vascular leakage was investigated. The body weight of mice were measure in normal (19.9±0.3 g), diabetic (17.7±0.3 g), and midazolam supplemented diabetic mice (17.7±0.3 g). Blood glucose levels were also monitored in normal (123.5±6.5 mg/dL), diabetic (505.0±89.0 mg/dL), and midazolam supplemented diabetic mice (500.3±63.3 mg/dL). The mice were anesthetized with 3% isoflurane, and 1.25 mg of FITC-dextran was injected into the right ventricle of each mouse and allowed to circulate for 5 min. […] The results of vascular leakage quantitatively analyzed by measuring the fluorescence intensity of FITC-dextran in the kidneys are shown in additional FIG. 20B. […]
FIGS. 21A and 21B show the preventive effects of midazolam against hyperglycemia-induced pulmonary vascular leakage in diabetic mice. […] Blood glucose levels were also monitored in normal (123.5±6.5 mg/dL), diabetic (505.0±89.0 mg/dL), and midazolam supplemented diabetic mice (500.3±63.3 mg/dL). […]

## Cc1ncc2n1-c1ccc(Cl)cc1C(c1ccccc1F)=NC2 [midazolam]
[1]; 20 μM midazolam 10 min then 10 ng/ml VEGF, no washing (FIG. 10A)
  ROS concentration (VEGF-induced) compared to control: no significant ROS concentration increase was observed
[1]; 20 μM midazolam 30 min, washing with serum-free medium, then 10 ng/ml VEGF (FIG. 10A)
  ROS concentration (VEGF-induced, after washing): ROS concentration was increased
[2]; 0 to 20 μM midazolam 30 min, then 10 ng/mL VEGF (FIG. 3A)
  ROS concentration, concentration dependence: ROS concentration was decreased with an increase in the concentration of midazolam
[2]; 10 ng/mL VEGF with 20 μM midazolam, 5 μM BAPTA-AM, 1 mM NAC, 0.5 μM Trolox, 50 μM cystamine or 20 μM MDC (FIG. 3B)
  ROS concentration (VEGF-induced) compared to control: no significant ROS concentration increase was observed
[3]; Test Example 15: midazolam supplemented diabetic mice, 10 mg/kg intraperitoneal daily for 14 days
  body weight: 17.0 ± 0.3 g
[3]; Test Example 16: midazolam supplemented diabetic mice, 10 mg/kg intraperitoneal daily for 2 days
  body weight: 17.7 ± 0.3 g
[3]; Test Example 17: midazolam supplemented diabetic mice, 10 mg/kg intraperitoneal daily for 2 days
  body weight: 17.6 ± 0.3 g
[3]; Test Example 18: midazolam supplemented diabetic mice, 10 mg/kg intraperitoneal daily for 14 days, B16F10 cells
  weight of mice: 16.2 ± 0.5 g
